From patent US9873709B2 (priority 2013, dated 2018)

Test system: JAK1-dependent STAT6 phosphorylation downstream of IL-13 stimulation in TF-1 human erythroleukemia cells
Assay: cells
Details: TF-1, read-out: IL-13-pSTAT6 IC50

`CN1CCC(N(C)C(=O)c2ccc(Nc3nc4c(N5CCC(CC#N)(c6ccc(Cl)c(F)c6)CC5)cccn4n3)cc2)CC1` [Example 1-263, 4-[[8-[4-(4-chloro-3-fluoro-phenyl)-4-(cyanomethyl)-1-piperidyl]-[1,2,4]triazolo[1,5-a]pyridin-2-yl]amino]-N-methyl-N-(1-methyl-4-piperidyl)benzamide] was tested, and the IC50 was 18.2 nM.

In the case of `O=C(c1ccc(Nc2nc3c(N4CCC(O)(c5ccc(Cl)cc5)CC4)cccn3n2)cc1)N1CCOC2(CCCNC2)C1` (stereo not shown) [Example 1-225, [4-[[8-[4-(4-chlorophenyl)-4-hydroxy-1-piperidyl]-[1,2,4]triazolo[1,5-a]pyridin-2-yl]amino]phenyl]-(1-oxa-4,8-diazaspiro[5.5]undecan-4-yl)methanone], the IC50 is reported as 30.8 nM.

For `CN1CCC(N(C)C(=O)c2ccc(Nc3nc4c(C5=CCN(C(=O)CC(C)(C)O)CC5)cccn4n3)cc2)CC1` [Example 2-3, 4-[[8-[1-(3-hydroxy-3-methyl-butanoyl)-3,6-dihydro-2H-pyridin-4-yl]-[1,2,4]triazolo[1,5-a]pyridin-2-yl]amino]-N-methyl-N-(1-methyl-4-piperidyl)benzamide], the IC50 was 163 nM.

Work on `CN1CCC(N(C)C(=O)c2ccc(Nc3nc4c(C5=CCN(S(=O)(=O)N6CC(C)(C)C6)CC5)cccn4n3)cc2)CC1` [Example 2-479, 4-[[8-[1-(3,3-dimethylazetidin-1-yl)sulfonyl-3,6-dihydro-2H-pyridin-4-yl]-[1,2,4]triazolo[1,5-a]pyridin-2-yl]amino]-N-methyl-N-(1-methyl-4-piperidyl)benzamide] yielded an IC50 of 239 nM.

For `CN1CCC(N(C)C(=O)c2ccc(Nc3nc4c(C5=CCN(C(=O)N6CC7(COC7)C6)CC5)cccn4n3)cc2)CC1` [Example 2-286, N-methyl-N-(1-methyl-4-piperidyl)-4-[[8-[1-(2-oxa-6-azaspiro[3.3]heptane-6-carbonyl)-3,6-dihydro-2H-pyridin-4-yl]-[1,2,4]triazolo[1,5-a]pyridin-2-yl]amino]benzamide], the IC50 was 1750 nM.

Compound `O=C(N[C@H]1[C@@H]2CNC[C@@H]21)c1ccc(Nc2nc3c(N4CCC(O)(c5ccc(Cl)cc5)CC4)cccn3n2)cc1` [Example 1-238, N-[(1R,5S)-3-azabicyclo[3.1.0]hexan-6-yl]-4-[[8-[4-(4-chlorophenyl)-4-hydroxy-1-piperidyl]-[1,2,4]triazolo[1,5-a]pyridin-2-yl]amino]benzamide] has an IC50 of 180 nM.

`CN1CCC(N(C)C(=O)c2ccc(Nc3nc4c(C5=CCN(C(=O)C6CCCC6)CC5)cccn4n3)cc2)CC1` [Example 2-281, 4-[[8-[1-(cyclopentanecarbonyl)-3,6-dihydro-2H-pyridin-4-yl]-[1,2,4]triazolo[1,5-a]pyridin-2-yl]amino]-N-methyl-N-(1-methyl-4-piperidyl)benzamide] gave an IC50 of 39.4 nM.

For `CCOC(=O)N1CC=C(c2cccn3nc(Nc4ccc(C(=O)NC5CCN(C)C5)cc4)nc23)CC1` (stereo not shown) [Example 2-433, ethyl 4-[2-[4-[(1-methylpyrrolidin-3-yl)carbamoyl]anilino]-[1,2,4]triazolo[1,5-a]pyridin-8-yl]-3,6-dihydro-2H-pyridine-1-carboxylate], the IC50 was 13.2 nM.

In the case of `O=C(CCC(F)(F)F)N1CC=C(c2cccn3nc(Nc4ccc(C(=O)N5CCCC(O)(CN6CCCC6)CC5)cc4)nc23)CC1` (stereo not shown) [Example 2-390, 4,4,4-trifluoro-1-[4-[2-[4-[4-hydroxy-4-(pyrrolidin-1-ylmethyl)azepane-1-carbonyl]anilino]-[1,2,4]triazolo[1,5-a]pyridin-8-yl]-3,6-dihydro-2H-pyridin-1-yl]butan-1-one], the IC50 is reported as 178 nM.

`Cc1ccc(C2CCN(C(=O)c3ccc(Nc4nc5c(C6=CCN(C(=O)CCC(F)(F)F)CC6)cccn5n4)cc3)CC2)nc1` [Example 2-215, 4,4,4-trifluoro-1-[4-[2-[4-[4-(5-methyl-2-pyridyl)piperidine-1-carbonyl]anilino]-[1,2,4]triazolo[1,5-a]pyridin-8-yl]-3,6-dihydro-2H-pyridin-1-yl]butan-1-one] was tested, and the IC50 was 13.5 nM.
